What is called IC50 is the concentration needed to halve the response being measured.

In one assay the target is T1, αvβ6 (Homo sapiens, UniProt P06756+P18564).
T1 construct: endogenous in cells; host or cells: HT-29 cells
The experiment in a line: αvβ6 cell adhesion inhibition test (HT-29 cells on recombinant human LAP protein). The class given is cell-based. The settings on record: recombinant human LAP coating, 200 μM MnCl2, 1 hour, read-out: IC50 (rate of inhibition of cell adhesion, αvβ6). How it is done: Test Example 2 was performed by partially modifying the method of Henderson et al. (Nat Med., 19 (12), 1617-24, 2013). In Test Example 2, the same reagents as in Test Example 1 were used unless otherwise specified.
Recombinant human LAP protein (manufactured by R&D Systems, Inc., 246-LP-025) was prepared at […] with PBS, dispensed at 100 μL/well to a 96-well plate, and left standing overnight. The plate was washed with HBSS, then subjected to blocking treatment with DMEM containing 1% BSA, and used as a coated plate in the adhesion test.
HT-29 cells cultured in McCoy's 5A medium (manufactured by Thermo Fisher Scientific, Inc., 16600) containing 10% FBS and 1% penicillin/streptomycin/amphotericin B were recovered and suspended in DMEM containing 0.1% BSA and 200 μM MnCl2 to prepare a cell suspension. A test compound was added thereto.
The cell suspension of 5×10^5 cells/mL containing the test compound was added at 100 μL/well to the coated plate and left standing for 1 hour in a 5% CO2 incubator (37° C.). One hour later, the supernatant was removed, and the plate was washed with HBSS containing 200 μM MnCl2. The cells that adhered to each well in the plate were stained with crystal violet, and the cells were lysed, followed by absorbance measurement. Inhibition without substrate coating was defined as 100% inhibition, and inhibition when DMSO was added instead of the test compound was defined as 0% inhibition. The rate of inhibition of cell adhesion by the test compound was calculated according to the following expression.
Rate of inhibition of cell adhesion (%)=[1−{(Absorbance in the case of adding the test compound)−(Absorbance without substrate coating)}/{(Absorbance in the case of adding DMS)−(Absorbance without substrate coating)}]×100
An IC50 value was calculated from the rate of inhibition of cell adhesion by the test compound. A: IC50<3 nM, B: 3 nM≤IC50<10 nM, C: 10 nM≤IC50<30 nM, D: 30 nM≤IC50<100 nM, or E: IC50≥100 nM.

Assay [1] has as its system TGF-β activation (phosphorylated SMAD3). The assay can be described thus: TGF-β activation inhibition test (inhibition of SMAD3 phosphorylation in TFK-1 cells). The settings on record: 48 h, fibronectin-coated plate, cultured 2 days, read-out: IC50 (rate of inhibition of phosphorylated SMAD3). The class given is cell-based. How it is done:
In Test Example 3, the inhibition of TGF-β activation by a compound was detected with the inhibition of SMAD3 phosphorylation as an index. In Test Example 3, the same reagents as in Test Example 1 were used unless otherwise specified.
Human fibronectin was prepared at 14 μg/mL with PBS and then dispensed at 50 μL/well to a 96-well plate. The plate was left standing at room temperature for 1 hour or longer, followed by the removal of the fibronectin solution. The plate was washed with PBS and used as a coated plate.
A test compound dissolved in DMSO was added to RPMI medium 1640 (manufactured by Thermo Fisher Scientific, Inc., 11875) containing 1% FBS and 1% penicillin/streptomycin/amphotericin B to prepare a medium containing the test compound having a concentration of two times the final concentration. This medium was added at 100 μL/well to the coated plate. TFK-1 cells (Cell Resource Center for Biomedical Research, Institute of Development, Aging and Cancer, Tohoku University) cultured in RPMI medium 1640 containing 10% FBS and 1% penicillin/streptomycin/amphotericin B were suspended in RPMI medium 1640 containing 1% FBS and 1% penicillin/streptomycin/amphotericin B to prepare a cell suspension of 1×10^6 cells/mL. The prepared cell suspension was further added at 100 μL/well and cultured for 2 days in a 5% CO2 incubator (37° C.).
Phosphorylated SMAD3 in the cells thus cultured for 2 days was measured using Phospho-SMAD3 (Ser423/425) cellular kit (manufactured by cisbio, 63ADK025), and a DeltaF value was calculated according to the calculation expression of the kit. Inhibition when 10 μM LY364947 (FUJIFILM Wako Pure Chemical Corp., 123-05981) was added instead of the test compound was defined as 100% inhibition, and inhibition when DMSO was added instead was defined as 0% inhibition. The rate of inhibition of phosphorylated SMAD3 by the test compound was calculated according to the following expression.
Rate of inhibition of phosphorylated SMAD3 (%)=[1−{(DeltaF value in the case of adding the test compound)−(DeltaF value in the case of adding 10 μM LY364947)}/{(DeltaF value in the case of adding DMSO)−(DeltaF value in the case of adding 10 μM LY364947)}]×100
An IC50 value was calculated from the rate of inhibition of phosphorylated SMAD3 by the test compound. A: IC50<10 nM, B: 10 nM≤IC50<50 nM, C: 50 nM≤IC50<100 nM, or D: IC50≥100 nM.

T1 sequence (P06756 31-889 limits assumed): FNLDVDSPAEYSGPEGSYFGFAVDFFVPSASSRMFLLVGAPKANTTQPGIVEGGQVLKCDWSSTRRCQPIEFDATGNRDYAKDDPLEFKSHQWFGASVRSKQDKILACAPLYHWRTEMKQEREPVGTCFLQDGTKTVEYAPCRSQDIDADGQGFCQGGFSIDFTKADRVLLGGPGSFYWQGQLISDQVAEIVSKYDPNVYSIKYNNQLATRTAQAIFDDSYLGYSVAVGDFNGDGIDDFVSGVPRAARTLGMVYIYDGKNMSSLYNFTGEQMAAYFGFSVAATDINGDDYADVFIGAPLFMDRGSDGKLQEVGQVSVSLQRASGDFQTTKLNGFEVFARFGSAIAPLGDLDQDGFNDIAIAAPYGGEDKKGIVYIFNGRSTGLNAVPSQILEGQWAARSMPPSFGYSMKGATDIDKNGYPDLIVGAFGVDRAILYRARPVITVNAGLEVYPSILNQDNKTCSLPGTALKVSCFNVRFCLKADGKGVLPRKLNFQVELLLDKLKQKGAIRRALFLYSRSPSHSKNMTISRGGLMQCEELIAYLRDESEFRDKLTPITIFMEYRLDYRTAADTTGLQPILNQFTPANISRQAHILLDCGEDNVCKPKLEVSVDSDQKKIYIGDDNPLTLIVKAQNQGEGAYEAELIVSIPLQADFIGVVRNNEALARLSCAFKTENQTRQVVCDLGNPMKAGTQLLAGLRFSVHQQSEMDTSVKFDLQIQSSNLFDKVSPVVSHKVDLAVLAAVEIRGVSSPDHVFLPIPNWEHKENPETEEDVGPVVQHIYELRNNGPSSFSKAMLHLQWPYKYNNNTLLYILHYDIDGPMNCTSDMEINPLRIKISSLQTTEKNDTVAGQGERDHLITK
T1 sequence (P06756 891-1048 limits assumed): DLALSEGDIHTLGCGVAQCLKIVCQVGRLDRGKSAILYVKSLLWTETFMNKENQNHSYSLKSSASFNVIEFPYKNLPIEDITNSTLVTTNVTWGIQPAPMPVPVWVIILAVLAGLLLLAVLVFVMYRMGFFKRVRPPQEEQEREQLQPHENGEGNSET
T1 sequence (P18564 22-788): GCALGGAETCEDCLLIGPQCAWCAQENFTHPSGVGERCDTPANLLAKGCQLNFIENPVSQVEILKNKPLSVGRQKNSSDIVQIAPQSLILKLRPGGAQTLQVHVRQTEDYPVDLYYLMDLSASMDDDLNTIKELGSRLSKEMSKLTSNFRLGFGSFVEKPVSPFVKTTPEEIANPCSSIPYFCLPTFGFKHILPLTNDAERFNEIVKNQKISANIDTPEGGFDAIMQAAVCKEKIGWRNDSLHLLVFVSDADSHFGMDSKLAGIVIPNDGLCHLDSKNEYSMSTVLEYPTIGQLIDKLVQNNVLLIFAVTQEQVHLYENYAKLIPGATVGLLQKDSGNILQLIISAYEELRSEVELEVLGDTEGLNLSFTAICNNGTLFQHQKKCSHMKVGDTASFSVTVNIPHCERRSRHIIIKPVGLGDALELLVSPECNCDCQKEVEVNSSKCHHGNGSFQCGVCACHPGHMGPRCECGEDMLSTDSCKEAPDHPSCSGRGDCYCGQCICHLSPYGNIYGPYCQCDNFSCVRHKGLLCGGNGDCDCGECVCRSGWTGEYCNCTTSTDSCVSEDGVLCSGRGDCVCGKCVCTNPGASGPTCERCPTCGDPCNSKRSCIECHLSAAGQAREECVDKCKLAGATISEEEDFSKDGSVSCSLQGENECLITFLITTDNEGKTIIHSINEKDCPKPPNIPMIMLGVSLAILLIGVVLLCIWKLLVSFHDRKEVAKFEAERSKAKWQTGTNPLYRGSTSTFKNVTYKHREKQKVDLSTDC

With `O=C(O)C[C@H](NC(=O)CNC(=O)c1cc(NC2=NCC(F)CN2)c2cn[nH]c2c1)c1cccc(N2CCOCC2)c1` (stereo partly drawn) [Example 45-(b), (3S)-3-(2-(4-((5-fluoro-1,4,5,6-tetrahydropyrimidin-2-yl)amino)-1H-indazole-6-carboxamido)acetamido)-3-(3-morpholinophenyl)propanoic acid], the IC50 on αvβ6 was in the range of 3 to 10 nM; in assay [1], 10 to 50 nM.

`O=C(O)C[C@H](NC(=O)CNC(=O)c1cc(NC2=NCC(F)CN2)c2cn[nH]c2c1)c1cc(Cl)cc(OC(F)F)c1` (stereo partly drawn) [Example 25-(b), (3S)-3-(3-chloro-5-(difluoromethoxy)phenyl)-3-(2-(4-((5-fluoro-1,4,5,6-tetrahydropyrimidin-2-yl)amino)-1H-indazole-6-carboxamido)acetamido)propanoic acid]: the IC50 at αvβ6 was < 3 nM; in assay [1], < 10 nM.

On to `O=C(O)C[C@H](NC(=O)CNC(=O)c1cc(NC2=NCC(F)CN2)cc2[nH]ncc12)c1cc(Br)cc(C(F)(F)F)c1` (stereo partly drawn) [Example 53-(b), (3S)-3-(3-bromo-5-(trifluoromethyl)phenyl)-3-(2-(6-((5-fluoro-1,4,5,6-tetrahydropyrimidin-2-yl)amino)-1H-indazole-4-carboxamido)acetamido)propanoic acid], for which the IC50 was < 3 nM at αvβ6 and < 10 nM in assay [1].

In the case of `O=C(O)C[C@H](NC(=O)CNC(=O)c1cc(NC2=NCC(F)CN2)c2cn[nH]c2c1)c1cc(Br)cc(I)c1` (stereo partly drawn) [Example 20-(b), (3S)-3-(3-bromo-5-iodophenyl)-3-(2-(4-((5-fluoro-1,4,5,6-tetrahydropyrimidin-2-yl)amino)-1H-indazole-6-carboxamido)acetamido)propanoic acid], the IC50 on αvβ6 was < 3 nM; in assay [1] it was < 10 nM.

In the case of `O=C(O)C[C@H](NC(=O)CNC(=O)c1cc(NC2=NCC(F)CN2)c2cn[nH]c2c1)c1cc(Br)cc(OC(F)(F)F)c1` (stereo partly drawn) [Example 32-(b), (3S)-3-(3-bromo-5-(trifluoromethoxy)phenyl)-3-(2-(4-((5-fluoro-1,4,5,6-tetrahydropyrimidin-2-yl)amino)-1H-indazole-6-carboxamido)acetamido)propanoic acid], the figures for the IC50 (at αvβ6; in assay [1]) were < 3 nM and < 10 nM, respectively.

With `O=C(O)C[C@H](NC(=O)CNC(=O)c1cc(NC2=NCC(F)CN2)c2cn[nH]c2c1)c1cc(Br)cc(OC(F)F)c1` (stereo partly drawn) [Example 26-(b), (3S)-3-(3-bromo-5-(difluoromethoxy)phenyl)-3-(2-(4-((5-fluoro-1,4,5,6-tetrahydropyrimidin-2-yl)amino)-1H-indazole-6-carboxamido)acetamido)propanoic acid], the IC50 is < 3 nM at αvβ6 and < 10 nM in assay [1].

Regarding `O=C(O)C[C@H](NC(=O)CNC(=O)c1cc(NC2=NCC(F)CN2)c2cn[nH]c2c1)c1cccc(OC2CC2)c1` (stereo partly drawn) [Example 40-(b), (3S)-3-(3-cyclopropoxyphenyl)-3-(2-(4-((5-fluoro-1,4,5,6-tetrahydropyrimidin-2-yl)amino)-1H-indazole-6-carboxamido)acetamido)propanoic acid], the results for the IC50 (on αvβ6; in assay [1]) were < 3 nM and 10 to 50 nM, respectively.

Consider `O=C(O)C[C@H](NC(=O)CNC(=O)c1cc(NC2=NCC(F)CN2)cc2[nH]ncc12)c1cccc(C(F)(F)F)c1` (stereo partly drawn) [Example 56-(b), (3S)-3-(2-(6-((5-fluoro-1,4,5,6-tetrahydropyrimidin-2-yl)amino)-1H-indazole-4-carboxamido)acetamido)-3-(3-(trifluoromethyl)phenyl)propanoic acid], for which the IC50 at αvβ6 was 3 to 10 nM; in assay [1], < 10 nM.

As to `O=C(O)C[C@H](NC(=O)CNC(=O)c1cc(NC2=NCC(F)CN2)c2cn[nH]c2c1)c1cc(Br)ccc1F` (stereo partly drawn) [Example 23-(b), (3S)-3-(5-bromo-2-fluorophenyl)-3-(2-(4-((5-fluoro-1,4,5,6-tetrahydropyrimidin-2-yl)amino)-1H-indazole-6-carboxamido)acetamido)propanoic acid], the IC50 is 3 to 10 nM on αvβ6 and 10 to 50 nM in assay [1].

In the case of `O=C(O)C[C@H](NC(=O)CNC(=O)c1cc(NC2=NCC(F)CN2)c2cn[nH]c2c1)c1cc(Cl)cc(Br)c1` (stereo partly drawn) [Example 18-(b), (3S)-3-(3-bromo-5-chlorophenyl)-3-(2-(4-((5-fluoro-1,4,5,6-tetrahydropyrimidin-2-yl)amino)-1H-indazole-6-carboxamido)acetamido)propanoic acid], the IC50 on αvβ6 was < 3 nM; in assay [1] it was 10 to 50 nM.

As to `O=C(O)C[C@H](NC(=O)CNC(=O)c1cc(NC2=NCC(F)CN2)c2cn[nH]c2c1)c1cc(OC(F)F)cc(C(F)(F)F)c1` (stereo partly drawn) [Example 24-(b), (3S)-3-(3-(difluoromethoxy)-5-(trifluoromethyl)phenyl)-3-(2-(4-((5-fluoro-1,4,5,6-tetrahydropyrimidin-2-yl)amino)-1H-indazole-6-carboxamido)acetamido)propanoic acid], the IC50 was < 3 nM at αvβ6 and < 10 nM in assay [1].

Consider `O=C(O)C[C@H](NC(=O)CNC(=O)c1cc(NC2=NCC(F)CN2)c2cn[nH]c2c1)c1ccc(F)c(OC(F)F)c1` (stereo partly drawn) [Example 27-(b), (3S)-3-(3-(difluoromethoxy)-4-fluorophenyl)-3-(2-(4-((5-fluoro-1,4,5,6-tetrahydropyrimidin-2-yl)amino)-1H-indazole-6-carboxamido)acetamido)propanoic acid], for which the IC50 is 3 to 10 nM on αvβ6 and < 10 nM in assay [1].

Regarding `O=C(O)C[C@H](NC(=O)CNC(=O)c1cc(NC2=NCC(F)CN2)cc2[nH]ncc12)c1ccc(F)c(C(F)(F)F)c1` (stereo partly drawn) [Example 55-(b), (3S)-3-(2-(6-((5-fluoro-1,4,5,6-tetrahydropyrimidin-2-yl)amino)-1H-indazole-4-carboxamido)acetamido)-3-(4-fluoro-3-(trifluoromethyl)phenyl)propanoic acid], the IC50 at αvβ6 is < 3 nM; in assay [1], < 10 nM.

For the molecule `COc1cc([C@H](CC(=O)O)NC(=O)CNC(=O)c2cc(NC3=NCC(F)CN3)c3cn[nH]c3c2)cc(C(F)(F)F)c1` (stereo partly drawn) [Example 5-(b), (3S)-3-(2-(4-((5-fluoro-1,4,5,6-tetrahydropyrimidin-2-yl)amino)-1H-indazole-6-carboxamido)acetamido)-3-(3-methoxy-5-(trifluoromethyl)phenyl)propanoic acid], the IC50 on αvβ6 was < 3 nM; in assay [1], 10 to 50 nM.

In the case of `O=C(O)C[C@H](NC(=O)CNC(=O)c1cc(NC2=NCC(F)CN2)c2cn[nH]c2c1)c1cc(C(F)(F)F)cc(C(F)(F)F)c1` (stereo partly drawn) [Example 7-(b), (3S)-3-(3,5-bis(trifluoromethyl)phenyl)-3-(2-(4-((5-fluoro-1,4,5,6-tetrahydropyrimidin-2-yl)amino)-1H-indazole-6-carboxamido)acetamido)propanoic acid], the IC50 on αvβ6 is < 3 nM; in assay [1] it was < 10 nM.

Values taken from patent publication US20230192661A1, “1, 4, 5, 6-TETRAHYDROPYRIMIDINE-2-AMINE DERIVATIVE” (UBE Corporation, priority 2020, published 2023).
